The source of these data is patent US4734120A, “Dipeptides containing C-terminal phosphinothricin, a process for their preparation and their use for controlling undesirable plant growth” (Hoechst Aktiengesellschaft, priority 1985, dated 1988).

Structures are written as SMILES.

Common to all, as to assay: Effect on weeds by the post-emergence technique
Common to all, as to assay type: in vivo
Conditions in all cases: rated visually after approx. 3-4 weeks

Assay [1] concerns Stellaria media (starwort). The method, then:
(§1) The damage caused to weed plants or the toleration by crop plants was rated by means of a code in which the activity is expressed by valuation numbers from 0 to 5. These have the following meanings:
(§2) Seeds or pieces of rhizome of monocotyledonous and dicotyledonous weeds were laid out in sandy loam soil in plastic pots (.phi.=9 l cm), covered with soil and cultivated in a greenhouse under good conditions for growth. The test plants were treated in the three leaf stage three weeks after sowing.
(§3) The compounds according to the invention, formulated as wettable powders, as emulsion concentrates or as aqueous solutions, were sprayed onto the green parts of the plants at various dosages and at a water application rate equivalent to 600 l/hectare, and the effect of the preparations was rated visually in comparison with untreated controls after the test plants had stood for approx. 3-4 weeks in a greenhouse under optimum conditions for growth (temperature 23 plus/minus 1° C.; relative humidity 60-80%). The agents according to the invention display a good herbicidal activity in the post-emergence technique against a broad spectrum of grass-like weeds and weeds of economic importance.

Assay [2] concerns Setaria lutescens foxtail. The method, then:
as §1, §2, §3

Assay [3] relates to Sinapis alba (white mustard). The procedure: as §1, §2, §3
Assay [4] has as its system Chrysanthemum segetum corn marigold. The method, then:
as §1, §2, §3

Assay [5] has as its system Echinochloa crusgalli barnyardgrass. The method, then: as §1, §2, §3
In the next assay the test system is Avena fatua (wild oats). The procedure:
as §1, §2, §3

On to `CP(=O)(O)CCC(NC(=O)[C@@H](N)Cc1ccccc1)C(=O)O` (mixture of isomers) [Example 2, N-L-phenylalanyl-DL-phosphinothricin], for which the “Herbicidal effect STM” value in assay [1] (0.6 kg of a.i./hectare) is recorded as 4 (4=60-80% effect or damage); in assay [1] (2.4 kg of a.i./hectare), 5 (5=80-100% effect or damage). Further, the “Herbicidal effect SAL” value in assay [2] (0.6 kg of a.i./hectare) and in assay [2] (2.4 kg of a.i./hectare) was 5 (5=80-100% effect or damage) throughout. Besides, the “Herbicidal effect SIA” value in assay [3] (0.6 kg of a.i./hectare) and in assay [3] (2.4 kg of a.i./hectare) was 5 (5=80-100% effect or damage) throughout. Also, the “Herbicidal effect CRS” value in assay [4] (0.6 kg of a.i./hectare) and in assay [4] (2.4 kg of a.i./hectare) was 5 (5=80-100% effect or damage) throughout. Besides, the “Herbicidal effect ECG” value in assay [5] (0.6 kg of a.i./hectare) and in assay [5] (2.4 kg of a.i./hectare) was 5 (5=80-100% effect or damage) throughout. The “Herbicidal effect AVF” value with Avena fatua (wild oats) (0.6 kg of a.i./hectare) and in the assay with Avena fatua (wild oats) (2.4 kg of a.i./hectare) was 5 (5=80-100% effect or damage) throughout.
On to `CP(=O)(O)CCC(NC(=O)[C@@H](N)CCCCN)C(=O)O` (some centres unmarked) [Example 72], for which the “Herbicidal effect STM” value in assay [1] (2.4 kg of a.i./hectare) was 5 (5=80-100% effect or damage). The “Herbicidal effect SIA” value in assay [3] (2.4 kg of a.i./hectare) was 5 (5=80-100% effect or damage). Further, the “Herbicidal effect CRS” value in assay [4] (2.4 kg of a.i./hectare) is 5 (5=80-100% effect or damage). In addition, the “Herbicidal effect ECG” value in assay [5] (2.4 kg of a.i./hectare) was 5 (5=80-100% effect or damage).
As for `CP(=O)(O)CCC(NC(=O)C(N)c1ccccc1)C(=O)O` (centres unmarked) [Example 34], the figures for the “Herbicidal effect STM” value in assay [1] (0.6 kg of a.i./hectare) and in assay [1] (2.4 kg of a.i./hectare) were 4 (4=60-80% effect or damage) and 5 (5=80-100% effect or damage), respectively. In addition, the “Herbicidal effect SAL” value in assay [2] (0.6 kg of a.i./hectare) is 4 (4=60-80% effect or damage); in assay [2] (2.4 kg of a.i./hectare) it was 5 (5=80-100% effect or damage). Also, the “Herbicidal effect SIA” value in assay [3] (0.6 kg of a.i./hectare) and in assay [3] (2.4 kg of a.i./hectare) was 5 (5=80-100% effect or damage) throughout. In addition, the “Herbicidal effect CRS” value in assay [4] (0.6 kg of a.i./hectare) and in assay [4] (2.4 kg of a.i./hectare) was 5 (5=80-100% effect or damage) each time. Also, the “Herbicidal effect ECG” value in assay [5] (0.6 kg of a.i./hectare) and in assay [5] (2.4 kg of a.i./hectare) was 5 (5=80-100% effect or damage) each time. The “Herbicidal effect AVF” value with Avena fatua (wild oats) (0.6 kg of a.i./hectare) is 3 (3=40-60% effect or damage); in the assay on Avena fatua (wild oats) (2.4 kg of a.i./hectare), 4 (4=60-80% effect or damage).
In the case of `CC(C)C(N)C(=O)NC(CCP(C)(=O)O)C(=O)O` (racemic) [Example 1, N-Dl-valyl-DL-phosphinothricin], the “Herbicidal effect STM” value in assay [1] (0.6 kg of a.i./hectare) is on record as 4 (4=60-80% effect or damage); in assay [1] (2.4 kg of a.i./hectare) it was 5 (5=80-100% effect or damage). The “Herbicidal effect SAL” value in assay [2] (0.6 kg of a.i./hectare) was 4 (4=60-80% effect or damage); in assay [2] (2.4 kg of a.i./hectare), 5 (5=80-100% effect or damage). Also, the “Herbicidal effect SIA” value in assay [3] (0.6 kg of a.i./hectare) and in assay [3] (2.4 kg of a.i./hectare) was 5 (5=80-100% effect or damage) each time. Besides, the “Herbicidal effect CRS” value in assay [4] (0.6 kg of a.i./hectare) and in assay [4] (2.4 kg of a.i./hectare) was 5 (5=80-100% effect or damage) in each case. In addition, the “Herbicidal effect ECG” value in assay [5] (0.6 kg of a.i./hectare) and in assay [5] (2.4 kg of a.i./hectare) was 5 (5=80-100% effect or damage) each time. The “Herbicidal effect AVF” value with Avena fatua (wild oats) (0.6 kg of a.i./hectare) is recorded as 4 (4=60-80% effect or damage); in the assay on Avena fatua (wild oats) (2.4 kg of a.i./hectare) it was 5 (5=80-100% effect or damage).
As to `CC(C)C[C@H](N)C(=O)NC(CCP(C)(=O)O)C(=O)O` (some centres unmarked) [Example 24], the “Herbicidal effect STM” value in assay [1] (2.4 kg of a.i./hectare) was 5 (5=80-100% effect or damage). Moreover, the “Herbicidal effect SIA” value in assay [3] (2.4 kg of a.i./hectare) is recorded as 5 (5=80-100% effect or damage). For the same molecule, in assay [4] (2.4 kg of a.i./hectare), the “Herbicidal effect CRS” value was 5 (5=80-100% effect or damage). In assay [5] (2.4 kg of a.i./hectare), the “Herbicidal effect ECG” value is on record as 5 (5=80-100% effect or damage).
